# Values quoted from earlier work in patent publication US8153661B2, “Controlled delivery system” (Durect Corporation, priority 2004, dated 2012).
smiles,measurement,value
CCCCN1CCCCC1C(=O)Nc1c(C)cccc1C (stereo not shown) [bupivacaine],published estimated toxic plasma concentration ranges,1 to 4 µg/mL
